Measured values as given in US20220346650A1, “SYSTEMS AND METHODS FOR VASCULAR AND STRUCTURAL IMAGING” (priority 2019, published 2022).

What was measured:
[1] = test system: vascular lesion in the right middle frontal gyrus; conditions: general comparison statement in Example 14, no own test described; cited from earlier work
[2] = test system: Grade 4 Atypical Teratoid Rhabdoid Tumor (ATRT) in the posterior fossa/brain stem; assay: Intraoperative NIR fluorescence imaging of tozuleristide during pediatric brain tumor resection; format: in vivo, human; conditions: Subject T613, 15 mg/m2 IV bolus about 13.5 hours prior to surgery
Experimental: This example describes use of the imaging system and/or method disclosed herein for coaxial illumination and visualization of tozuleristide fluorescence during surgical resection of a pediatric brain tumor. The imaging system of the present invention was used to image brain tissue to detect a cancer using fluorescence imaging. Surgery was performed to remove cancer from the subject.
Subject T613 was diagnosed with a Grade 4 Atypical Teratoid Rhabdoid Tumor (ATRT) in the posterior fossa/brain stem. Tozuleristide which is a peptide-fluorophore detectable agent (15 mg/m2 dose), was given by intravenous (IV) bolus injection about 13.5 hours prior to the start of surgery. The imaging head was attached to the Zeiss Pentero surgical microscope along with two eyepieces prior the start of surgery.
After the tumor was exposed, the imaging system was initialized and used continuously. The imaging system enabled the surgeon to view fluorescence and visible imaging together and simultaneously with the operating microscope. […] Moreover, there was no need to reposition the operating microscope to view the fluorescence and visible images thus providing imaging of the surgical area together with the fluorescence imaging system during the operation, which decreased disruption to the surgical workflow.
Video was captured for the duration of the tumor resection, and still images were captured of the exposed tumor. […] FIGS. 15A-15F show images taken from the tumor resection with the near-infrared (NIR) fluorescence images of the tumor using the imaging system (FIGS. 15B and 15E) and the overlay image with the NIR fluorescence overlaid with the white light or visible light spectrum illumination (FIGS. 15C and 15F). […] In the overlay image, the normal brain tissue appeared red, as it does under normal visible light or white light as shown the visible light images of the tumor (FIGS. 15A and 15D). The surgeon noted that only tumor tissue appeared fluorescent.

[3] = test system: vascular lesion in the right middle frontal gyrus; assay: Intraoperative NIR fluorescence imaging of tozuleristide during resection of a vascular lesion (arteriovenous or cavernous malformation); format: in vivo, human; conditions: for Fluorescence of surrounding tissue, normal brain tissue and normal vasculature / Fluorescence of the abnormal vascular tissue / vascular lesion: pediatric subject, 22 mg (15 mg/m^2) IV approximately 5-6 hours before surgery, NIR fluorescence; for Fluorescence of the abnormal vascular tissue / vascular lesion: in situ
Experimental: (§1) This example describes use of the imaging system and/or methods disclosed herein for coaxial illumination and visualization of tozuleristide fluorescence during surgical resection of an arteriovenous malformation or cavernous malformation in a pediatric patient. The imaging system of the present invention was used to image brain tissue to detect abnormal vasculature using fluorescence imaging. Surgery was performed to remove the abnormality from the subject.
A pediatric subject with a history of anosmia was found on MRI to have a 3.5 cm T1-hypointense, T2/FLAIR-hyperintense mass in the right middle frontal gyrus with a central enhancing nodule, initially diagnosed pre-operatively to be a low-grade glioma. […] The patient received 22 mg (15 mg/M^2) of tozuleristide via IV injection approximately 5-6 hours before surgery and image collection. The imaging system head was attached to the Zeiss Pentero surgical microscope along with two eyepieces prior the start of surgery.
After the lesion was exposed, the imaging system was initialized and used continuously. The imaging system enabled the surgeon to view fluorescence and visible imaging together and simultaneously with the operating microscope. A microsurgical resection was performed through a right frontal craniotomy. […] The abnormal tissue was completely resected. The patient recovered without deficit. Pathology confirmed the absence of tumor.
Video was captured for the duration of the resection, and still images were captured of the exposed lesion. […] FIGS. 18 and 19 show images taken from the vascular lesion with the near-infrared (NIR) fluorescence images of the vascular lesion using the imaging system. […] In the overlay image, the normal brain tissue and normal blood vessels appeared pink or light tan to red, as it does under normal visible light or white light. The surgeon noted that only the abnormal vascular tissue appeared fluorescent.

[4] = test system: cerebral cavernous malformation in the left cerebellar hemisphere; assay: Intraoperative NIR fluorescence imaging of tozuleristide during cavernous malformation resection; format: in vivo, human; conditions: pediatric patient; 15 mg/m2 IV on the morning of surgery
Experimental: as §1, with “compounds and” for “imaging system and/or”, “a” for “an arteriovenous malformation or”, “An” for “The”, “system” for “system of the present invention”
The patient received 15 mg/m2 of a fluorescent conjugate comprising SEQ ID NO: 1 conjugated to an ICG (tozuleristide, also referred to herein as Compound 76) via IV injection on the morning of surgery and image collection. The imaging system head was attached to the Zeiss Pentero surgical microscope along with two eyepieces prior the start of surgery.
After the lesion was exposed, the imaging system was initialized and used continuously. The imaging system enabled the surgeon to view fluorescence and visible imaging together and simultaneously with the operating microscope. A microsurgical resection was performed through a left retroaricular craniotomy with frameless stereotactic navigation and intraoperative ultrasonography. A round mulberry appearing vascular lesion that contained areas of thrombosed vessels and firm calcifications was encountered. […] The lesion was removed. […]

Row | Molecule | Behaviour of ICG alone after injection (comparison statement) [1] | Surgeon-noted distinction between tumor and normal tissue with NIR fluorescence [2] | Background fluorescence in non-tumor or normal brain tissue ([2]; NIR fluorescence image) | Tozuleristide fluorescence in the exposed tumor ([2]; NIR fluorescence, in situ) | Time after injection during which diseased tissue can be highlighted ([3]; general statement in Example 14, fluorescence dependent on pathological tissue binding and uptake) | Fluorescence of surrounding tissue, normal brain tissue and normal vasculature [3] | Fluorescence of the abnormal vascular tissue / vascular lesion [3] | Fluorescence of the abnormal vascular tissue / vascular lesion ([3]; listed as Tozuleristide) | Fluorescence of the abnormal vascular tissue / vascular lesion ([3]; listed as toluzeristide) | Fluorescence of surrounding tissue, normal brain tissue and normal vasculature ([3]; listed as Tozuleristide) | Fluorescence of surrounding tissue, normal brain tissue and normal vasculature ([3]; listed as toluzeristide) | Fluorescence of the cavernous malformation lesion [4] | Fluorescence of the surrounding cerebellum [4]
1 | CC1(C)C(/C=C/C=C/C=C/C=C2\N(CCCCS(=O)(=O)O)c3ccc4ccccc4c3C2(C)C)=[N+](CCCCS(=O)(=O)[O-])c2ccc3ccccc3c21 [ICG, indocyanine green] | transiently lights up blood vessels immediately after injection | – | – | – | – | – | – | – | – | – | – | – | –
2 | tozuleristide | – | very good distinction between tumor and normal tissue fluorescence | no discernable background fluorescence | observed in situ in the exposed tumor | up to 30 hours | non-fluorescent | indicative of the presence of tozuleristide in the vascular lesion | observed in situ in the exposed vascular lesion | fluoresced avidly | no discernable background fluorescence | no fluorescence | fluoresced avidly | did not fluoresce
